Like-named read-outs stand apart in the source and are kept apart here.
Legend:
EGFR del19/C797S = EGFR del19/C797S (Homo sapiens, UniProt P00533, C797S/DEL746-750); test: Biochemical EGFR kinase assay (Lance Ultra TR-FRET), double mutant del19/C797S
How it was run: (§1)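 In this biochemical assay, phosphorylation after a one-hour room-temperature reaction was detected with europium-labelled anti-phosphopeptide antibody at 2 nM final concentration.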

EGFR del19/T790M/C797S = EGFR del19/T790M/C797S (Homo sapiens, UniProt P00533, C797S/DEL746-750/T790M); test: Biochemical EGFR kinase assay (Lance Ultra TR-FRET), triple mutant del19/T790M/C797S
Sequence of EGFR del19/T790M/C797S (P00533 with tags, fused parts or gaps DEL746-750/T790M/C797S): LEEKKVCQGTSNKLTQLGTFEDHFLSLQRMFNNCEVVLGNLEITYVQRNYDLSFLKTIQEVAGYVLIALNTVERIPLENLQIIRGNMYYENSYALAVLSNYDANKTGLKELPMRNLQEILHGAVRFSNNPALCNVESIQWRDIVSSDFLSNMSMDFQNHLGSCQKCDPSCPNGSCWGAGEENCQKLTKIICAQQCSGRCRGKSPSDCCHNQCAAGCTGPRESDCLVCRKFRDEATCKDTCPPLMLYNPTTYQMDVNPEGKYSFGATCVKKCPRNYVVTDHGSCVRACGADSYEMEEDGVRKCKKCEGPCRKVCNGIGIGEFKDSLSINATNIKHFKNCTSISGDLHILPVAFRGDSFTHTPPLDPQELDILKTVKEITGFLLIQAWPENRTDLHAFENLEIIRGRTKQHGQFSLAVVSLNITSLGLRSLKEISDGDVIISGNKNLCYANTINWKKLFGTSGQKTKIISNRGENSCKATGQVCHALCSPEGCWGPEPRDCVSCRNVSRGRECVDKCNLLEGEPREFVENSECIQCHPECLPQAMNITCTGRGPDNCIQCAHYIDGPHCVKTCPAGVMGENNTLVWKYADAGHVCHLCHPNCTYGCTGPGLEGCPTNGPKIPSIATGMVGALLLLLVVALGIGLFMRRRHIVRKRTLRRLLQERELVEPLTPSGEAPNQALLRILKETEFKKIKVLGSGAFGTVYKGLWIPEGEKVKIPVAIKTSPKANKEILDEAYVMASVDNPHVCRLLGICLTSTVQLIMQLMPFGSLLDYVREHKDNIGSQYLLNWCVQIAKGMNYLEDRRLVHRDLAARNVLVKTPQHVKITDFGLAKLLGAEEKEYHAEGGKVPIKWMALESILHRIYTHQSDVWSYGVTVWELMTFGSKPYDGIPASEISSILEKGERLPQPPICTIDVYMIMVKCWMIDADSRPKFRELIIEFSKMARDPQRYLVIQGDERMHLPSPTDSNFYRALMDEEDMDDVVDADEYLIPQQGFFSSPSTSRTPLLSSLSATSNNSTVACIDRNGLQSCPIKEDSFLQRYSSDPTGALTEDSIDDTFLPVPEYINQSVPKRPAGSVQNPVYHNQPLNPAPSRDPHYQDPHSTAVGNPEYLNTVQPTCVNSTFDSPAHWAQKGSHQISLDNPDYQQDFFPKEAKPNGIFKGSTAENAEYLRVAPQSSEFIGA
How it was run: as §1

EGFR L858R/C797S = EGFR L858R/C797S (Homo sapiens, UniProt P00533, C797S/L858R); test: Biochemical EGFR kinase assay (Lance Ultra TR-FRET), double mutant L858R/C797S
Sequence of EGFR L858R/C797S (P00533 25-1210 C797S/L858R): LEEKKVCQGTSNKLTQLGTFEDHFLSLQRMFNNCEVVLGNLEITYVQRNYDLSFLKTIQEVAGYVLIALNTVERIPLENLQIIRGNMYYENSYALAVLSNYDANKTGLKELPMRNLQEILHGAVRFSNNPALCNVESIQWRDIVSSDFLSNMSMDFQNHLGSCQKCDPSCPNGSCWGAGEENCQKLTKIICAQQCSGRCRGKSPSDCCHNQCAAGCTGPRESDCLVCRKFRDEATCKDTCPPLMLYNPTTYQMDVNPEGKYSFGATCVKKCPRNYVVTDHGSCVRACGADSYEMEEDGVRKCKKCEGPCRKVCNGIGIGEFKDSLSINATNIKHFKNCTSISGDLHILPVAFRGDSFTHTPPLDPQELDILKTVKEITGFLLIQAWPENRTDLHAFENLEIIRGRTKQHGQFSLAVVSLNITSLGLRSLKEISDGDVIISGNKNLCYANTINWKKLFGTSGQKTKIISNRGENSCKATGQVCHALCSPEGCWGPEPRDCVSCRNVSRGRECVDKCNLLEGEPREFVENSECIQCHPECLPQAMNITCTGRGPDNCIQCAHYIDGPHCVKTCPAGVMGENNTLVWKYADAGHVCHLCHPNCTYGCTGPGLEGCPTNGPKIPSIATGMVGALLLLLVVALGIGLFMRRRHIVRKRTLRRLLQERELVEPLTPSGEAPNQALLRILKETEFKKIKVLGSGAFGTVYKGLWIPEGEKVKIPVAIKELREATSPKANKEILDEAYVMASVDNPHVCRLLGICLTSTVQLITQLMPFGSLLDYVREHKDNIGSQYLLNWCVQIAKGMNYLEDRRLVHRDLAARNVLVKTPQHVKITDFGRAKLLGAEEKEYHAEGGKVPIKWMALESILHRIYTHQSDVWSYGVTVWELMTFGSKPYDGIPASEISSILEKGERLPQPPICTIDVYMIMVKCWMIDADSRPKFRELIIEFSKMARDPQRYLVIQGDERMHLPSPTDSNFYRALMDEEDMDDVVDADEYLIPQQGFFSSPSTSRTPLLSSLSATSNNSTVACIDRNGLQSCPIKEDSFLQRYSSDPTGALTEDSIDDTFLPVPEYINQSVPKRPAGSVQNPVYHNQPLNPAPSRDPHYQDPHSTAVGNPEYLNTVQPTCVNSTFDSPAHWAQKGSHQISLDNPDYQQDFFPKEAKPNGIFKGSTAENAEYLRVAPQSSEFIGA
How it was run: as §1

EGFR L858R/T790M/C797S = EGFR L858R/T790M/C797S (Homo sapiens, UniProt P00533, C797S/L858R/T790M); test: Biochemical EGFR kinase assay (Lance Ultra TR-FRET), triple mutant L858R/T790M/C797S
How it was run: as §1

EGFR wildtype = EGFR wildtype (Homo sapiens, UniProt P00533); test: Biochemical EGFR kinase assay (Lance Ultra TR-FRET), wildtype
Sequence of EGFR wildtype (P00533 25-1210): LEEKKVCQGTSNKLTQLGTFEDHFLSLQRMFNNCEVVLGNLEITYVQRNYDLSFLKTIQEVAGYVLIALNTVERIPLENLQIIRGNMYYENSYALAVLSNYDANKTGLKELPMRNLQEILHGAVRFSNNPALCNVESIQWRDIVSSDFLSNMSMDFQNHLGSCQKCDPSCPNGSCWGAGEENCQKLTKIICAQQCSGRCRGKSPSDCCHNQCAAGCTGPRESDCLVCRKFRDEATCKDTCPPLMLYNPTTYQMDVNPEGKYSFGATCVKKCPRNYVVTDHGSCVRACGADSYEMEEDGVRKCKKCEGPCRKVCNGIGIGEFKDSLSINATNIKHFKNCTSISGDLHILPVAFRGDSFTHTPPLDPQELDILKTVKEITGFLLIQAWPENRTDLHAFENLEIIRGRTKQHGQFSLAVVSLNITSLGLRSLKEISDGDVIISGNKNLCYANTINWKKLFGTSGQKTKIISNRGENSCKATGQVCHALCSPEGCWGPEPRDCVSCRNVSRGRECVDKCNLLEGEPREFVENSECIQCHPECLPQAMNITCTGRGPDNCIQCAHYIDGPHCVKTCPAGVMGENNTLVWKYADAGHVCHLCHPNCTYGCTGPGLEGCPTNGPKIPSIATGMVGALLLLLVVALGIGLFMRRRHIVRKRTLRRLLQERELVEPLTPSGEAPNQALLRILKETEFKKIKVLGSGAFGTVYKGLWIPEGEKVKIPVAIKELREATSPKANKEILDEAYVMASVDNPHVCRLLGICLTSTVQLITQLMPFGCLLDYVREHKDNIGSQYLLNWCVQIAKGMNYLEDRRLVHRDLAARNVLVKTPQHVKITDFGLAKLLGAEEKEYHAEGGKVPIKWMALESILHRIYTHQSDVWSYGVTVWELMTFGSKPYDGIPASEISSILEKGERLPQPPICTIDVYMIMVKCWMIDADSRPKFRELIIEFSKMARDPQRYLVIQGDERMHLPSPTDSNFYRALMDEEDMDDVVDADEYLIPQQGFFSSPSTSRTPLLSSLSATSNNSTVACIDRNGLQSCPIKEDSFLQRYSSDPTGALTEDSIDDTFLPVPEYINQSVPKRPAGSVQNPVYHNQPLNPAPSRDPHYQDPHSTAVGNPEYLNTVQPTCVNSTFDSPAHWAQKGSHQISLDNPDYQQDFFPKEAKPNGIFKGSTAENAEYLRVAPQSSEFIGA
How it was run: as §1

[1] = ATP at Km, read-out: IC50 del19/C797S, Km ATP
[2] = ATP at Km, read-out: IC50 del19/T790M/C797S, Km ATP
[3] = IC50 del19/T790M/C797S, 100 μM ATP
[4] = ATP at Km, read-out: IC50 L858R/C797S, Km ATP
[5] = ATP at Km, read-out: IC50 L858R/T790M/C797S, Km ATP
[6] = IC50 L858R/T790M/C797S, 100 μM ATP
[7] = ATP at Km, read-out: IC50 WT, Km ATP
[8] = IC50 del19/C797S (nM) 100 μM ATP, 100 μM ATP
[9] = Km ATP, read-out: IC50 del19/C797S (nM) Km ATP
[10] = IC50 del19/T790M/C797S (nM) 100 μM ATP, 100 μM ATP
[11] = Km ATP, read-out: IC50 del19/T790M/C797S (nM) Km ATP
[12] = IC50 L858R/C797S (nM) 100 μM ATP, 100 μM ATP
[13] = Km ATP, read-out: IC50 L858R/C797S (nM) Km ATP
[14] = IC50 L858R/T790M/C797S (nM) 100 μM ATP, 100 μM ATP
[15] = Km ATP, read-out: IC50 L858R/T790M/C797S (nM) Km ATP
[16] = IC50 WT (nM) 100 μM ATP, 100 μM ATP
[17] = Km ATP, read-out: IC50 WT (nM) Km ATP

Sequence of EGFR del19/C797S (P00533 with tags, fused parts or gaps DEL746-750/C797S): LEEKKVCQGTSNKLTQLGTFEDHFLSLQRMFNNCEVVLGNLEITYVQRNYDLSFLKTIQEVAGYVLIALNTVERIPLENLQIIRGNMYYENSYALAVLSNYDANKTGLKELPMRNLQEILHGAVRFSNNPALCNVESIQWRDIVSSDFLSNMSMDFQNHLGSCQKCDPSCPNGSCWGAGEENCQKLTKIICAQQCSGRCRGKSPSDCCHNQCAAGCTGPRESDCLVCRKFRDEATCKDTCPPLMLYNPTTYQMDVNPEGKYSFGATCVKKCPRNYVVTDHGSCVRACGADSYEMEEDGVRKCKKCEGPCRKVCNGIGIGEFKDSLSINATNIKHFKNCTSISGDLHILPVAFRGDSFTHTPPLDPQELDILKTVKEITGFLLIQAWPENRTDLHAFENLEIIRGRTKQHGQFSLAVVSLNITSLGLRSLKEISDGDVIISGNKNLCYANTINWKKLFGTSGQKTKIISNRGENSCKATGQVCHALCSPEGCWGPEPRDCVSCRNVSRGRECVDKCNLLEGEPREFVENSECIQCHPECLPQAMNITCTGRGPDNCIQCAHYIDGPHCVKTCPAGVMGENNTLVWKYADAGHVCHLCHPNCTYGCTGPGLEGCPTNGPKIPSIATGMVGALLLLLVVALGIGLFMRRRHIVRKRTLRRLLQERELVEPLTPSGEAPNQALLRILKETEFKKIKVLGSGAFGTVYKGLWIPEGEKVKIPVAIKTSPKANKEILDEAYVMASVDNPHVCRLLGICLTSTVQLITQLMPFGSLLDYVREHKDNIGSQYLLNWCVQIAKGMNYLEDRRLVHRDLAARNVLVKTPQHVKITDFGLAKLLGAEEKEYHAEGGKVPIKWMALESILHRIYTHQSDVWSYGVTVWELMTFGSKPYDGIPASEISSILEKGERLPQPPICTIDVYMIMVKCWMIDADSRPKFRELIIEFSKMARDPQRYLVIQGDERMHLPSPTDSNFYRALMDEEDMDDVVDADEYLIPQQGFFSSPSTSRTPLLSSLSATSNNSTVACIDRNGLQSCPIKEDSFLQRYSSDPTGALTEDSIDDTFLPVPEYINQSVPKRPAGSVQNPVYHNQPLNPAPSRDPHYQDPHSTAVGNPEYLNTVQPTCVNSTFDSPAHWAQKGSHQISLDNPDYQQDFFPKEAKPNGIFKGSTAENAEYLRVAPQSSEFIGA

Row | Compound | IC50 (EGFR del19/C797S; [1]) | IC50 (EGFR del19/C797S; IC50 del19/C797S, 100 μM ATP) | IC50 (EGFR del19/T790M/C797S; [2]) | IC50 (EGFR del19/T790M/C797S; [3]) | IC50 (EGFR L858R/C797S; [4]) | IC50 (EGFR L858R/C797S; IC50 L858R/C797S, 100 μM ATP) | IC50 (EGFR L858R/T790M/C797S; [5]) | IC50 (EGFR L858R/T790M/C797S; [6]) | IC50 (EGFR wildtype; [7]) | IC50 (EGFR wildtype; IC50 WT, 100 μM ATP) | IC50 (EGFR del19/C797S; [8]) | IC50 (EGFR del19/C797S; [9]) | IC50 (EGFR del19/T790M/C797S; [10]) | IC50 (EGFR del19/T790M/C797S; [11]) | IC50 (EGFR L858R/C797S; [12]) | IC50 (EGFR L858R/C797S; [13]) | IC50 (EGFR L858R/T790M/C797S; [14]) | IC50 (EGFR L858R/T790M/C797S; [15]) | IC50 (EGFR wildtype; [16]) | IC50 (EGFR wildtype; [17])
1 | C[C@]1(O)CC[C@@H](Nc2cc(Nc3ccnc(-c4cnn(S(=O)(=O)C5CC5)c4)n3)ncc2-c2ccc(OCCO)cn2)CC1 [Example 205, (1s,4s)-4-((6′-((2-(1-(Cyclopropylsulfonyl)-1H-pyrazol-4-yl)pyrimidin-4-yl)amino)-5-(2-hydroxyethoxy)-[2,3′-bipyridin]-4′-yl)amino)-1-methylcyclohexan-1-ol] | 0.7 nM | 0.6 nM | 0.3 nM | 0.7 nM | 0.4 nM | 3.5 nM | 0.2 nM | 0.2 nM | 2 nM | 1440 nM |  |  |  |  |  |  |  |  |  | 
2 | CC(C)(O)[C@H]1CC[C@@H](Nc2cc(Nc3ccnc(-c4cnn(S(=O)(=O)C5CC5)c4)n3)ncc2-c2cnc(F)cn2)CC1 [Example 186, 2-((1s,4s)-4-((2-((2-(1-(Cyclopropylsulfonyl)-1H-pyrazol-4-yl)pyrimidin-4-yl)amino)-5-(5-fluoropyrazin-2-yl)pyridin-4-yl)amino)cyclohexyl)propan-2-ol] | 11.5 nM | 56.8 nM | 3.8 nM | 29 nM | 5.8 nM | 165 nM |  | 4.8 nM | 744 nM | > 10000 nM |  |  |  |  |  |  |  |  |  | 
3 | CC(C)(O)c1ccc(-c2cnc(Nc3ccnc(-c4cnn(S(=O)(=O)C5CC5)c4)n3)cc2N[C@H]2CC[C@@H](C(C)(C)O)CC2)nc1 [Example 169, 2-(6′-((2-(1-(Cyclopropylsulfonyl)-1H-pyrazol-4-yl)pyrimidin-4-yl)amino)-4′-(((1s,4s)-4-(2-hydroxypropan-2-yl)cyclohexyl)amino)-[2,3′-bipyridin]-5-yl)propan-2-ol] | 0.5 nM | 1.3 nM | 1.3 nM | 0.9 nM | 0.4 nM |  |  | 0.7 nM |  | 416 nM |  |  |  |  |  |  |  |  |  | 
4 | O=S(=O)(C1CC1)n1cc(-c2nccc(Nc3cc(N[C@H]4CC[C@@H](CO)CC4)c(-c4ccc(N5CCC(F)(F)CC5)nn4)cn3)n2)cn1 [Example 69, ((1s,4s)-4-((2-((2-(1-(Cyclopropylsulfonyl)-1H-pyrazol-4-yl)pyrimidin-4-yl)amino)-5-(6-(4,4-difluoropiperidin-1-yl)pyridazin-3-yl)pyridin-4-yl)amino)cyclohexyl)methanol] |  |  |  |  |  |  |  |  |  |  | 5.3 nM | 2.4 nM | 1.6 nM | 1.9 nM | 52.7 nM | 1.4 nM | 1.4 nM | 0.8 nM | 4780 nM | 14.5 nM
5 | O=S(=O)(C1CC1)n1cc(-c2nccc(Nc3cc(N[C@H]4CC[C@@H](CO)CC4)c(-c4cc(NC5CC(F)(F)C5)ccn4)cn3)n2)cn1 [Example 214, ((1s,4s)-4-((6′-((2-(1-(Cyclopropylsulfonyl)-1H-pyrazol-4-yl)pyrimidin-4-yl)amino)-4-((3,3-difluorocyclobutyl)amino)-[2,3′-bipyridin]-4′-yl)amino)cyclohexyl)methanol] | 1.8 nM | 8 nM | 3 nM | 5.6 nM | 2.2 nM | 6.9 nM | 3.5 nM | 4.5 nM | 4.5 nM | 711 nM |  |  |  |  |  |  |  |  |  | 
6 | CN1CCC(Oc2ccc(-c3cnc(Nc4ccnc(-c5cnn(S(=O)(=O)C6CC6)c5)n4)cc3N[C@H]3CC[C@@](C)(O)CC3)nn2)CC1 [Example 269, (1s,4s)-4-((2-((2-(1-(Cyclopropylsulfonyl)-1H-pyrazol-4-yl)pyrimidin-4-yl)amino)-5-(6-((1-methylpiperidin-4-yl)oxy)pyridazin-3-yl)pyridin-4-yl)amino)-1-methylcyclohexan-1-ol] | 0.4 nM |  | 0.1 nM |  | 0.1 nM |  | 0.1 nM |  | 2.6 nM |  |  |  |  |  |  |  |  |  |  | 
7 | CC(C)(O)[C@H]1CC[C@@H](Nc2cc(Nc3ccnc(-c4cnn(S(=O)(=O)C5CC5)c4)n3)ncc2-c2cccc(CC(F)(F)F)n2)CC1 [Example 247, 2-((1s,4s)-4-((6′-((2-(1-(Cyclopropylsulfonyl)-1H-pyrazol-4-yl)pyrimidin-4-yl)amino)-6-(2,2,2-trifluoroethyl)-[2,3′-bipyridin]-4′-yl)amino)cyclohexyl)propan-2-ol] |  | 80.6 nM |  | 14.7 nM |  | 51.1 nM |  | 2.6 nM | 111 nM | > 10000 nM |  |  |  |  |  |  |  |  |  | 
8 | CC(C)(O)c1cc(-c2cnc(Nc3ccnc(-c4cnn(S(=O)(=O)C5CC5)c4)n3)cc2N[C@H]2CC[C@@](C)(O)CC2)ncc1F [Example 104, (1s,4s)-4-((6′-((2-(1-(Cyclopropylsulfonyl)-1H-pyrazol-4-yl)pyrimidin-4-yl)amino)-5-fluoro-4-(2-hydroxypropan-2-yl)-[2,3′-bipyridin]-4′-yl)amino)-1-methylcyclohexan-1-ol] |  |  |  |  |  |  |  |  |  |  | 3.1 nM | 2.2 nM | 1.8 nM | 1.1 nM | 21.6 nM | 0.9 nM | 0.8 nM | 0.6 nM | > 10000 nM | 21.9 nM
9 | CN1CCC(Oc2ccc(-c3cnc(Nc4ccnc(-c5cnn(S(=O)(=O)C6CC6)c5)n4)cc3N[C@H]3CCC[C@H](CO)C3)nc2)CC1 [Example 253, ((1S,3S)-3-((6′-((2-(1-(Cyclopropylsulfonyl)-1H-pyrazol-4-yl)pyrimidin-4-yl)amino)-5-((1-methylpiperidin-4-yl)oxy)-[2,3′-bipyridin]-4′-yl)amino)cyclohexyl)methanol] | 0.4 nM |  | 0.7 nM |  | 0.2 nM |  | 0.4 nM |  | 1 nM |  |  |  |  |  |  |  |  |  |  | 
10 | C[C@]1(O)CC[C@@H](Nc2cc(Nc3ccnc(-c4cnn(S(=O)(=O)C5CC5)c4)n3)ncc2-c2cnc(CO)cn2)CC1 [Example 60, (1s,4s)-4-((2-((2-(1-(Cyclopropylsulfonyl)-1H-pyrazol-4-yl)pyrimidin-4-yl)amino)-5-(5-(hydroxymethyl)pyrazin-2-yl)pyridin-4-yl)amino)-1-methylcyclohexan-1-ol] |  |  |  |  |  |  |  |  |  |  | 0.5 nM | 0.4 nM | 0.2 nM | 0.2 nM | 4.2 nM | 0.4 nM | 0.4 nM | 0.2 nM | > 10000 nM | 6.8 nM
11 | CC(O)(c1ccc(-c2cnc(Nc3ccnc(-c4cnn(S(=O)(=O)C5CC5)c4)n3)cc2N[C@H]2CCC[C@H](CO)C2)nc1)C(F)(F)F (stereo partly drawn) [Example 232, 2-(6′-((2-(1-(Cyclopropylsulfonyl)-1H-pyrazol-4-yl)pyrimidin-4-yl)amino)-4′-(((1S,3S)-3-(hydroxymethyl)cyclohexyl)amino)-[2,3′-bipyridin]-5-yl)-1,1,1-trifluoropropan-2-ol] | 3.3 nM | 9.5 nM | 3.9 nM | 2.1 nM | 6.7 nM | 60.2 nM | 0.8 nM | 0.8 nM | 19 nM | 8760 nM |  |  |  |  |  |  |  |  |  | 
12 | C[C@]1(O)CC[C@@H](Nc2cc(Nc3ccnc(-c4cnn(S(=O)(=O)C5CC5)c4)n3)ncc2-c2cc(NCCN3CCOCC3)ccn2)CC1 [Example 279, (1s,4s)-4-((6′-((2-(1-(Cyclopropylsulfonyl)-1H-pyrazol-4-yl)pyrimidin-4-yl)amino)-4 ((2-morpholinoethyl)amino)-[2,3′-bipyridin]-4′-yl)amino)-1-methylcyclohexan-1-ol] | 1.7 nM | 5 nM | 2 nM | 2.9 nM | 0.9 nM | 6.6 nM | 0.6 nM |  | 11.9 nM | > 10000 nM |  |  |  |  |  |  |  |  |  | 
13 | CC1(O)CCC(Nc2cc(Nc3ccnc(-c4cnn(S(=O)(=O)C5CC5)c4)n3)ncc2-c2ccc(C(O)C(F)(F)F)cn2)CC1 (centres unmarked) [Example 226, (1s,4s)-4-((6′-((2-(1-(Cyclopropylsulfonyl)-1H-pyrazol-4-yl)pyrimidin-4-yl)amino)-5-(2,2,2-trifluoro-1-hydroxyethyl)-[2,3′-bipyridin]-4′-yl)amino)-1-methylcyclohexan-1-ol] |  | 4.7 nM | 0.8 nM | 0.8 nM | 2 nM | 8.4 nM | 0.3 nM | 0.5 nM | 4.9 nM | 5120 nM |  |  |  |  |  |  |  |  |  | 
